The values that follow come from US8759558B2, “Sulphur containing lipids for use as food supplement or as medicament” (Pronova Biopharma Norge AS, priority 2008, dated 2014).

Broadly, the EC50 is the concentration needed to bring the measured effect to its halfway point. A lower EC50 goes with an effect from little substance.

SMILES strings stand for the structures.

The target in assay [1] is T1, PPARα (Homo sapiens, UniProt Q07869).
T1 construct: expressed in transfected cells; host or cells: HEK293 cells, transiently transfected
T1 sequence (Q07869 239-466 limits assumed): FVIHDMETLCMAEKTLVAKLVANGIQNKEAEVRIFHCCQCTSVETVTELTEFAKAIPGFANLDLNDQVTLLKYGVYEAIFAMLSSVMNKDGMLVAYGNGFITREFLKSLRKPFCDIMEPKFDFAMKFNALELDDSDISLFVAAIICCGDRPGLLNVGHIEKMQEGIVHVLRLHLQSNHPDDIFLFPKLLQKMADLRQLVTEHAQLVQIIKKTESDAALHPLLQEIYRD
Nature of the assay: PPARα activation in-vitro, mammalian-one-hybrid (M1H) luciferase reporter assay, concentration response. The conditions noted are these: GAL4-DBD-PPARα-LBD, transiently transfected HEK293 cells; for PPARα Efficacy: positive control GW7647. It is filed as cell-based. As to the method: The assay was carried out in-vitro using mammalian-one-hybrid assays (M1H) comprising GAL4-DNA binding domain-PPARα-LBD fusion constructs in conjunction with 5×GAL4-sites driven Photinus pyralis luciferase reporter construct in transiently transfected HEK293 cells.

Assay [2] concerns Wistar rat. The settings on record: Wistar rat model; Willumsen et al 1997; cited from earlier work.

`CC/C=C\C/C=C\C/C=C\C/C=C\C/C=C\CCCCSC(CC)(CC)C(=O)O` [Compound (12), 2-ethyl-2-((5Z,8Z,11Z,14Z,17Z)-icosa-5,8,11,14,17-pentaenylthio)butanoic acid]: in assay [1], the EC50 came to 286 nM and the “PPARα Efficacy” value was 84%. As for `CC(C)(Sc1ccc(CCN(CCCCC2CCCCC2)C(=O)NC2CCCCC2)cc1)C(=O)O` [GW7647], the “PPARα Efficacy” value in assay [1] is 100%.

As to `CC/C=C\C/C=C\C/C=C\C/C=C\CCSCC(=O)OC` [Methyl (all-Z)-3-thia-6,9,12,15-octadecatetraenoate], the plasma triglycerides result in assay [2] is reported as “lowered plasma triglycerides to a similar extent”.
